Results as given in US7163921B1, “Peptide derivatives and medicinal compositions” (Nippon Shinyaku Co., Ltd., priority 2000, dated 2007).
Marks after values point to notes of the source that are not given here.

Assays:
human μ receptor = target: T1, human μ receptor (Homo sapiens, UniProt P35372); assay: μ Receptor binding test ([3H] diprenorphine displacement); details: Ki for μ receptor divided by Ki for nociceptin receptor
T1 construct: purchased Receptor Biology
Description: A human μ receptor-expressing cell membrane preparation (Receptor Biology) was adjusted at the membrane protein level of 8.5 μg/mL in a Tris buffer [50 mM Tris-HCl (pH 7.8), 5 mM MgCl2, 1 mM EGTA, 0.1% BSA]. To this suspension, [^3H] diprenorphine (diluted to the final concentration of 0.13 nM in the Tris buffer) and a test substance were added, and the mixture was incubated at 25° C. for 90 minutes. Using a cell harvester and a washing solution [50 mM Tris-HCl (pH 7.8), 4° C.], the membrane was recovered onto the GF/B filter which had been pretreated with 0.3% PEI, and washed further 4 times. The filter was transferred into a vial, to which a scintillator was added, and then the radioactivity was measured using a liquid scintillation counter. A non-specific binding was regarded as a binding in the presence of 100 μM naloxone, and the difference between the total binding and the non-specific binding was regarded as the specific binding. Based on the % binding inhibition in the presence of a test substance, the IC50 was obtained and employed together with the Kd value of the [^3H] diprenorphine to calculate the Ki value of the test substance (mol/L; hereinafter referred to as M value). The M value was divided by the N value obtained in Test Example 1 to judge the selectivity of the receptor binding of the test substance.

Male mice (ddY) = assay: Mouse formalin test; format: in vivo
Description: Male mice (ddY; 4 to 5 weeks old) were kept at a room temperature of 21 to 25° C. and a humidity of 45 to 65% in a cage having a 12-hour light/12-hour dark cycle while being fed with feed and water ad libitum, whereby being acclimatized for a period of 1 week or longer. 6 Animals in each group were employed.
The compound of Example 1 was dissolved in physiological saline. Each mouse was placed in a cylindrical tube whose diameter was about 4 cm, immobilized at its tail, and a 27G needle connected to a 1 mL syringe was inserted into its tail vein, via which 0.1 mL/10 g body weight of the drug solution was administered rapidly. In a control group, physiological saline was administered. After administration, an absorbent cotton was used for hemostasis, and the animal was returned to the observation cage. The dose of the compound of Example 1 was 1 mg or 3 mg per 1 kg body weight of each mouse.
Subsequently, each mouse was acclimatized sufficiently to the observation cage, and then placed in a retainer for the drug administration. 20 μL of a 1% formalin solution was subcutaneously administered into the plantar region of the hindpaw, and the mouse was returned to the observation cage, and examined for the duration of any aversive behavior such as licking or biting the administered hindpaw extremity over a period of 30 minutes using a stopwatch.

T1 sequence (P35372 whole entry): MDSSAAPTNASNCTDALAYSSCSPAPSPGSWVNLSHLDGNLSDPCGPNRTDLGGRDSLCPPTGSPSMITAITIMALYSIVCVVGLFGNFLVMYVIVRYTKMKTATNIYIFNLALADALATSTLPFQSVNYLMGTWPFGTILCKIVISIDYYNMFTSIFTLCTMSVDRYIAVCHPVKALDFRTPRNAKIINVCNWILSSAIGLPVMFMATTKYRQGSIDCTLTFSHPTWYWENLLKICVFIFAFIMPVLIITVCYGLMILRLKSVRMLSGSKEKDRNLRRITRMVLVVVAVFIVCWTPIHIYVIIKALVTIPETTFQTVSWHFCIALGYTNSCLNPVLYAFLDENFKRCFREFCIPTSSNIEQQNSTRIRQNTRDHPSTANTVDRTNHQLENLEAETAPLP

**Q.** How did the “Selectivity (M value/N value)” value (human μ receptor) turn out when `N=C(N)NCCCCCCN[C@@H](Cc1ccc(O)cc1)C(=O)N[C@@H](Cc1ccc(O)cc1)C(=O)N[C@@H](CCCNC(=N)N)C(=O)N[C@@H](Cc1c[nH]c2ccccc12)C(N)=O` [Example 1, N-α-6-Guanidinohexyl-L-tyrosyl-L-tyrosyl-L-arginyl-L-tryptophanamide] was run?
**A.** 93

**Q.** What about the “Duration of aversive behavior” value (Male mice (ddY); 1 mg/kg via tail vein, 0 to 10 min after formalin administration, control 128.3) of the same compound?
**A.** 80.8** sec

**Q.** And the “Duration of aversive behavior” value (Male mice (ddY); 1 mg/kg via tail vein, 10 to 30 min after formalin administration, control 261.0)?
**A.** 163.8 s

**Q.** What about the “Duration of aversive behavior” value (Male mice (ddY); 3 mg/kg via tail vein, 0 to 10 min after formalin administration, control 128.3) of the same compound?
**A.** 41.00** sec

**Q.** What about the “Duration of aversive behavior” value (Male mice (ddY); 3 mg/kg via tail vein, 10 to 30 min after formalin administration, control 261.0) of the same compound?
**A.** 112.8** sec

**Q.** How did the “Selectivity (M value/N value)” value (human μ receptor) turn out when `Cc1cc(C[C@H](NCCCCCCNC(=N)N)C(=O)N[C@@H](Cc2ccc(O)cc2)C(=O)N[C@@H](CCCNC(=N)N)C(=O)N[C@H](C)c2ccc3ccccc3c2)cc(C)c1O` [Example 25, N-α-6-Guanidinohexyl-3,5-dimethyl-L-tyrosyl-L-tyrosyl-N-[(R)-1-(2-naphthyl)ethyl]-L-argininamide] was run?
**A.** 15

**Q.** `Cc1cc(C[C@H](NCCCCCCNC(=N)N)C(=O)N[C@@H](Cc2cc(C)c(O)c(C)c2)C(=O)N[C@@H](CCCNC(=N)N)C(=O)N[C@H](C)c2ccc3ccccc3c2)cc(C)c1O` [Example 27, N-α-6-Guanidinohexyl-3,5-dimethyl-L-tyrosyl-3,5-dimethyl-L-tyrosyl-N-[(R)-1-(2-naphthyl)ethyl]-L-argininamide] was tested. Which “Selectivity (M value/N value)” value (human μ receptor) did it give?
**A.** 17
